Our source for the EC50, IC50 and AC50 values is ChEMBL document CHEMBL1201862, “PubChem BioAssay data set” (2004).

Data set [1] addresses T1, Heat shock factor protein 1 (Mus musculus, UniProt P38532).
T1 sequence (P38532 whole entry): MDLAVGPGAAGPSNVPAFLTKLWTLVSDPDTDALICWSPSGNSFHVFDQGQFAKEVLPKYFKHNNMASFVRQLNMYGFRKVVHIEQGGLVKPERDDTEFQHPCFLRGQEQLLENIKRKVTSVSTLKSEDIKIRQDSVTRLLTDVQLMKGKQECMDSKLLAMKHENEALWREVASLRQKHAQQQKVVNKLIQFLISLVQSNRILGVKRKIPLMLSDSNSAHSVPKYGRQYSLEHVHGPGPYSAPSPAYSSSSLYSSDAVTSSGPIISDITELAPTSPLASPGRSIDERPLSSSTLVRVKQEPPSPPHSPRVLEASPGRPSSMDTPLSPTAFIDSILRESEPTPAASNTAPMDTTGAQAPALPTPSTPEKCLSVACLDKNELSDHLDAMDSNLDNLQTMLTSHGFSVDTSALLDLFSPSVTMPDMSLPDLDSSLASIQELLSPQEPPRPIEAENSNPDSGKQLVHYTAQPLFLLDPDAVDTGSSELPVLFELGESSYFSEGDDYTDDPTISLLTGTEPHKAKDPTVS
Nature of the data set: HSF1 potentiators in luciferase reporter cells, confirmation, cell-based, NIH3T3, luminescence, dose retest (AID 435004).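 Note: stress induced by proteasome inhibitor MG132 added 30 min after compound; luciferase reporter driven by HSF1 response element in NIH3T3 cells; actives raise luminescence as potentiators of the MG132 stress response.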 It counts as functional.

Data set [2] addresses T2, Corticotropin-releasing factor receptor 2/Corticotropin-releasing factor-binding protein (Homo sapiens, UniProt P24387+Q13324).
T2 sequence (Q13324 whole entry): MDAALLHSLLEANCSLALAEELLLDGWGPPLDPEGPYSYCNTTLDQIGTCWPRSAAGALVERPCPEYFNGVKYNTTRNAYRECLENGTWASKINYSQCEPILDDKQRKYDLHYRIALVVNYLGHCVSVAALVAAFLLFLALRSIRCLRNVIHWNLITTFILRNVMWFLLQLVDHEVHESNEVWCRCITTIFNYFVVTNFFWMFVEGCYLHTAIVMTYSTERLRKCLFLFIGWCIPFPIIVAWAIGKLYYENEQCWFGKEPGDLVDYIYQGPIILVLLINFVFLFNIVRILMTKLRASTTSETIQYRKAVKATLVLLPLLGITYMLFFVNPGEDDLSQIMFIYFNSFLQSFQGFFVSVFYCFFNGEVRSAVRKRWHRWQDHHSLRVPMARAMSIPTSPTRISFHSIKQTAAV
T2 sequence (P24387 whole entry): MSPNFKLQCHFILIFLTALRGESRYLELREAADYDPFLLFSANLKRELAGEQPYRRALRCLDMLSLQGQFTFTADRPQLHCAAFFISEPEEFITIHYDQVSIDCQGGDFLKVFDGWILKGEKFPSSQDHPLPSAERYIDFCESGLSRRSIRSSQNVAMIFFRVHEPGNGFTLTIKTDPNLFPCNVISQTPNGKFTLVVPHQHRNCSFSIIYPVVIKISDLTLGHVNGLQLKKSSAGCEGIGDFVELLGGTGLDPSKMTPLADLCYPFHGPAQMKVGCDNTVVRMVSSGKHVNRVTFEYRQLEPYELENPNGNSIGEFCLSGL
Briefly: Dose Response confirmation of uHTS hits for small molecule antagonists of the CRF-binding protein and CRF-R2 receptor complex. Type of data set: functional. Particulars: read-out: IC50_Mean.

Data set [3] concerns the target T2, Corticotropin-releasing factor receptor 2/Corticotropin-releasing factor-binding protein. Briefly: activators of CRF receptor 2 with binding protein – uHTS hits, confirmation (AID 602473). To be noted: read-out: EC50_Mean. It counts as functional.
The nature of data set [4]: inhibitors of firefly luciferase expression or activity, dose response, H4 neuroglioma cells, luminescence (AID 1990). It counts as functional, cell-based.
Data set [5] can be described thus: Luminescence Cell-Based Dose Response HTS to Identify Inhibitors of 5'UTR Stem-Loop Driven Prion Protein mRNA Translation in H4 Neuroglioblastoma Cells. [Related pubchem assays: 1827 (Project Summary), 1813 (Primary HTS)]. Type of data set: functional.
Data set [6] in a line: inhibitors of SNCA 5'UTR-driven reporter translation, confirmation, H4 neuroglioma cells, luminescence (AID 1988). It counts as functional, cell-based.
Data set [7] can be described thus: inhibitors of intracellular T. cruzi replication, confirmation, NIH3T3 host cells, beta-gal luminescence (AID 2044).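 Note: intracellular parasites grown in NIH/3T3 mouse fibroblasts as host cells; luminescent beta-galactosidase reporter signal from transgenic T. cruzi replicating inside host cells; inhibitors lower the luminescence signal.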 It counts as functional, cell-based.
Data set [8] can be described thus: cytotoxicity toward NIH3T3 fibroblasts, dose response, counter-screen, cell-based, ATP luminescence, mouse fibroblasts (AID 2010).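 Note: cells exposed to compound for about 90 hours before reading.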 It counts as functional. A general note: Counterscreens check selectivity or assay interference.
In another data set the test system is INS1. Nature of the data set: beta cell apoptosis inhibitors, cytokine rescue, dose response, luminescence, retest (AID 449756).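 Note: cell death triggered by IL-1 beta plus TNF-alpha plus IFN-gamma mixture; protective hits raise ATP signal compared with cytokine alone wells.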 It counts as functional, cell-based. To be noted: Rattus norvegicus.
For another data set, the target named is T3, Cytochrome P450 1A2 (Homo sapiens, UniProt P05177).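 Note: PubChem cytochrome P450 panel assay, CYP1A2 panel member.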
T3 sequence (P05177 whole entry): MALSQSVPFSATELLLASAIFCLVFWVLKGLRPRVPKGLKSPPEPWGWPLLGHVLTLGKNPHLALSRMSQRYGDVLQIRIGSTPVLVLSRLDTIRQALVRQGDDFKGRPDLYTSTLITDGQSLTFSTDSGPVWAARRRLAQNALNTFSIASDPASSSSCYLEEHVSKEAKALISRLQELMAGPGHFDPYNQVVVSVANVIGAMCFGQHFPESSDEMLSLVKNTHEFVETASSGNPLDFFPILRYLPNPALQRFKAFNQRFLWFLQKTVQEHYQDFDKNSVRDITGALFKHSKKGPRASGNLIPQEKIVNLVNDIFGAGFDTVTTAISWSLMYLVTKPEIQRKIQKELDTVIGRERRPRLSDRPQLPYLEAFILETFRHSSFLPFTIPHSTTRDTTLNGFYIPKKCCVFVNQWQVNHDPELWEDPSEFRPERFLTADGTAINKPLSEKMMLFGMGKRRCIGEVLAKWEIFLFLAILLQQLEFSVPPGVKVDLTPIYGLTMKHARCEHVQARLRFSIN

The next data set deals with Cytochrome P450 3A4 (Homo sapiens, UniProt P08684).
Chain of Cytochrome P450 3A4 (P08684 whole entry): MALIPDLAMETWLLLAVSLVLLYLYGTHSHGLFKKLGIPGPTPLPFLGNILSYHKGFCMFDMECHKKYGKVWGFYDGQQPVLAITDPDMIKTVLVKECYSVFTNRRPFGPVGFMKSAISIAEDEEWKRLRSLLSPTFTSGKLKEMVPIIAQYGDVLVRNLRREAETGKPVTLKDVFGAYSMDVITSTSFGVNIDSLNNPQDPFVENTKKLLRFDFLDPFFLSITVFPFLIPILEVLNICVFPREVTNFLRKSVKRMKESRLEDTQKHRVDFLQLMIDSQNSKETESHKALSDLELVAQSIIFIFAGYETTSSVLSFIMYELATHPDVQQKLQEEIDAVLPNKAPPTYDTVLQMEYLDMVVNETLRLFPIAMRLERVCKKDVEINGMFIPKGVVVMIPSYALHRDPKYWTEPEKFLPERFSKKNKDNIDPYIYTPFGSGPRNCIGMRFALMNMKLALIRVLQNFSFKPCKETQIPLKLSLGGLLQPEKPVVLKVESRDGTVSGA
A further data set has as its target Cytochrome P450 2C9 (Homo sapiens, UniProt P11712).
The next data set deals with Cytochrome P450 2C19 (Homo sapiens, UniProt P33261). Briefly: Cytochrome panel assay with activity outcomes. Panel member name: p450-cyp2c19 Compounds with AC50 equal or less than 10 uM are considered active. It counts as functional.
Chain of Cytochrome P450 2C19 (P33261 whole entry): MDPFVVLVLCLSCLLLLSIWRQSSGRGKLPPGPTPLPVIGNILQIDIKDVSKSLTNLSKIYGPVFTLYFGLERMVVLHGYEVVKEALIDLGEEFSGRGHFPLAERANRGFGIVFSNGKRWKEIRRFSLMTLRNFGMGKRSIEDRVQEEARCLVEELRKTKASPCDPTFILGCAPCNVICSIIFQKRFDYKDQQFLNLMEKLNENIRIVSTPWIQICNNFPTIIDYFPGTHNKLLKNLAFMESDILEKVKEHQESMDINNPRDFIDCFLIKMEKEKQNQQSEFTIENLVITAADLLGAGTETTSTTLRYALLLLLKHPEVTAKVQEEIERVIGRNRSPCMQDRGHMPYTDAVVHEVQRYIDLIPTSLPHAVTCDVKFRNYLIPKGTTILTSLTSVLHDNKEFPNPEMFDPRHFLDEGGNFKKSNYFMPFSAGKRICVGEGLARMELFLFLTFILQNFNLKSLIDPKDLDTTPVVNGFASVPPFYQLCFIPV

The term AC50 denotes the concentration at which the activity in the assay is half-maximal.

SMILES strings stand for the structures. Active and inactive are the calls of the source.

Chain of Cytochrome P450 2C9 (P11712 whole entry): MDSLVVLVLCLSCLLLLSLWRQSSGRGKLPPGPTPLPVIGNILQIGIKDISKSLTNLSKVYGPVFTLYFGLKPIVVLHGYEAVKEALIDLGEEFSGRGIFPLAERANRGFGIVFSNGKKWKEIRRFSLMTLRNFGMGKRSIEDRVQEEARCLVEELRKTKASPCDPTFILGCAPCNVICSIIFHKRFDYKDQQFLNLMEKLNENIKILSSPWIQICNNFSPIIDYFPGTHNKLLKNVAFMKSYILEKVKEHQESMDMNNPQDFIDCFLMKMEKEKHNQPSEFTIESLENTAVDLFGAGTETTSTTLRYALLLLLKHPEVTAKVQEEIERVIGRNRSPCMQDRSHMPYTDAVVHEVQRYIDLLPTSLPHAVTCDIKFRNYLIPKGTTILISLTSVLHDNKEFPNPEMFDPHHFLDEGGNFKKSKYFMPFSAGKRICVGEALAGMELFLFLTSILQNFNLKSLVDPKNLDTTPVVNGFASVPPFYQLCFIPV

As to `CCOC(=O)CSc1nc2c(sc3ccc([N+](=O)[O-])cc32)c(=O)n1Cc1ccco1`, the EC50 in data set [1] is > 260 µM (inactive).
For `COc1ccccc1/C=C/c1nc(S(=O)(=O)c2ccccc2)c(N(C)C)o1`, the IC50 in data set [2] was < 0.368 µM (active). Further, the EC50 in data set [3] was > 53 µM (inactive).
As to `Cc1cccc(-n2c(SCc3ccc(C#N)cc3)nnc2-c2c[nH]c3ccccc23)c1`, the EC50 in data set [4] is > 120 µM (not active); in [5], > 120 µM (not active); in data set [6] it was 25.7 µM (active).
With `C=C(C)COc1ccc(-c2nc(N)ncc2-c2ccc(OC)c(OC)c2)c(O)c1`, the EC50 is 33.7 µM (active) in data set [4], > 120 µM (not active) in data set [5] and 15.7 µM (active) in [6].
For the molecule `CC1(c2ccc([N+](=O)[O-])cc2)NC(=O)N(CC(=O)c2ccc3c(c2)OCO3)C1=O` (centres undefined), the EC50 is > 260 µM (inactive) in data set [1] and 12.1 µM (active) in [3].
Take `CC(Oc1ccc(Cl)cc1)C(=O)OCC(=O)Nc1ncc(Cl)cc1Cl` (centres undefined): the EC50 in [1] was > 260 µM (inactive).
For the molecule `CS(=O)(=O)N(CC(=O)Nc1ccc(CC#N)cc1)c1ccc(C23CC4CC(CC(C4)C2)C3)cc1`, the EC50 in data set [7] is 2.35 µM (active); in [8] it was > 60 µM (not active); in data set [1], > 260 µM (inactive). Also, the AC50 with INS1 is 6.44 µM (active).
Turning to `CC(C)CC(=O)Nc1ccc(N2CCOCC2)cc1`, the EC50 in data set [1] is > 260 µM (inactive).
As for `COc1cc(NC(=O)c2cc3ccccc3o2)c(OC)cc1Br`, the EC50 was > 120 µM (not active) in data set [5] and 14.7 µM (active) in data set [6]. For the same molecule, the AC50 on Cytochrome P450 1A2 was 2.24 µM (inconclusive); on Cytochrome P450 3A4, 10 µM (inconclusive); on Cytochrome P450 2C9, 0.112 µM (inconclusive).
As to `Cc1ccc(OCC(=O)N2N=C(C(F)(F)F)CC2(O)C(C)(C)C)cc1C` (centres undefined), the EC50 in [4] was 102 µM (active); in [5], 21.8 µM (active); in [6] it was 33.1 µM (active).
Turning to `COc1cccc(C(=O)OCC(=O)NCCC2=CCCCC2)c1`, the IC50 in data set [2] was > 47.1 µM (inactive). In addition, the EC50 in data set [3] is > 53 µM (inactive).
With `CCCNC(=O)c1c(CSc2ccc(Cl)cc2)noc1C(=O)NCc1ccccc1`, the EC50 in data set [1] is > 260 µM (inactive).
With `COc1ccc(CNC(=O)CN(Cc2ccccc2)C(=O)CCC(=O)Nc2nccs2)cc1`, in data set [1], the EC50 was > 260 µM (inactive).
Regarding `CCOc1ccc(S(=O)(=O)N2CN(c3cccc(C(C)=O)c3)c3nc4ccccc4nc32)cc1`, the IC50 in data set [2] is < 0.368 µM (active). The EC50 in data set [3] was > 53 µM (inactive).
Regarding `Cc1nnc(C)n1/N=C/c1cccs1`, the half-maximal activity concentration (AC50) result is “inconclusive” on Cytochrome P450 2C19 and 17.8 µM (inconclusive) on Cytochrome P450 1A2. The IC50 in [2] is > 47.1 µM (inactive). The EC50 in [3] was > 53 µM (inactive).
As to `COc1ccccc1C1SCCN1S(=O)(=O)c1ccccc1` (centres undefined), the IC50 in data set [2] is > 47.1 µM (inactive). The EC50 in [3] was > 53 µM (inactive).
As to `CCOc1cc(/C=N\NC(=O)C2C(=O)NCC2c2ccccc2)ccc1OC` (centres undefined), the EC50 is > 120 µM (not active) in [4], > 120 µM (not active) in data set [5], > 120 µM (not active) in data set [6] and 5.59 µM (active) in [3].
Regarding `Cc1cccc(C)c1/N=C1\SC(CC(=O)Nc2c(C)cccc2C)C(=O)N1CCc1ccccn1` (centres undefined), the EC50 in data set [4] is 10.2 µM (active); in [5], 0.46 µM (active); in [6] it was 95.8 µM (active).
